Series [1] concerns Alternaria solani. Put plainly: Activity against early blight of tomato caused by Alternaria solani, protective use. In kind it is in vivo. Conditions: 250 ppm spray, tomato cultivar Large Fruited St. Pierre, visual rating after 5 days, untreated 80%. As to the method: (§1) For use examples 1 and 2, the active compounds were formulated as a stock solution 15 with 0.25% by weight of active compound in acetone or dimethyl sulfoxide (DMSO). 1% by weight of the emulsifier Uniperol® EL (wetting agent having emulsifying and dispersant action based on ethoxylated alkylphenols) was added to this solution, and the mixture was diluted with water to the desired concentration.
Activity Against Early Blight of Tomato Caused by Alternaria solani, Protective Use
Leaves of potted plants of the tomato cultivar “Large Fruited St. Pierre” were sprayed to runoff point with an aqueous suspension having the concentration of active compound stated below. The next day, the leaves were infected with an aqueous spore suspension of Alternaria solani in a 2% biomalt solution having a density of 0.17×10^6 spores/ml. The plants were then placed in a water-vapor-saturated chamber at 20-22° C. After 5 days, the blight on the untreated but infected control plants had developed to such an extent that the infection could be determined visually in %.

Series [2] has as its system Erysiphe [syn. Blumeria] graminis forma specialis tritici. Kind of series: Activity against mildew of wheat caused by Erysiphe [syn. Blumeria] graminis forma specialis tritici, protective use. Conditions: 250 ppm spray, wheat seedlings cultivar Newton, visual rating after 7 days, % of entire leaf area, untreated 90%. In kind it is in vivo. Here is the method:
Activity Against Mildew of Wheat Caused by Erysiphe [syn. Blumeria] graminis form a Specialis tritici, Protective Use
Leaves of wheat seedlings, grown in pots, of the cultivar “Newton” were sprayed to runoff point with an aqueous suspension having the concentration of active compound stated below. The suspension or emulsion was prepared from a stock solution comprising 5% of active compound, 94% of cyclohexanone and 1% of emulsifier (Tween 20) by dilution with water. 3-5 hours after the spray coating had dried on, the […] of wheat (Erysiphe [syn. Blumeria] graminis form a specialis. tritici). The test plants were then placed in a greenhouse at 20-24° C. and 60-90% relative atmospheric humidity. After 7 days, the extent of the mildew development was determined visually in % infection of the entire leaf area.

In series [3] the test system is Plasmopara viticola. Kind of series: Activity against Peronospora of grapevines caused by Plasmopara viticola, protective use. In kind it is in vivo. Conditions: 250 ppm spray, grapevine cultivar Müller-Thurgau, visual rating of leaf undersides, untreated 90%. As to the method: as §1
Activity against Peronospora of Grapevines caused by Plasmopara viticola, Protective Use
Leaves of potted grapevines of the cultivar “Müller-Thurgau” were sprayed to runoff point with an aqueous suspension having the concentration of active compound stated below. The next day, the undersides of the leaves were inoculated with an aqueous zoospore suspension of Plasmopara viticola. The grapevines were then initially placed in a water-vapor-saturated chamber at 24° C. for 48 hours and then in a greenhouse at 20-30° C. for 5 days. After this period of time, the plants were again placed in a humid chamber for 16 hours to promote sporangiophore eruption. The extent of the development of the infection on the undersides of the leaves was then determined visually.

On to `CCC(C)C(C)c1c(-c2ccc(F)cc2C)c(C)nn2cnnc12` (mixture of isomers) [Example 16], for which the “Infection [%] at 250 ppm” value in series [1] turned out to be 20%.
On the same count and under the same terms, next, `CCCC(C)c1c(-c2ccc(F)cc2C)c(C)nn2cnnc12` (racemic) [Example 13]: 10%.
In the case of `CCCC(C)c1c(-c2ccc(C)cc2C)c(C)nn2cnnc12` (racemic) [Example 14], in series [2], the “Infection [%] at 250 ppm” value stood at 20%.
For the compound `CCCC(C)c1c(-c2ccc(F)cc2F)c(C)nn2cnnc12` (single isomer, unassigned) [Example 18], the results for the “Infection [%] at 250 ppm” value in series [3] and in series [2] were 10% and 7%, respectively.
Take `CCCC(C)c1c(-c2ccc(C)cc2F)c(C)nn2cnnc12` (single isomer, unassigned) [Example 19]: the “Infection [%] at 250 ppm” value in series [2] was 20%.
Same read-out and setting: next, `CCC(C)C(C)c1c(-c2ccc(C)cc2F)c(C)nn2cnnc12` (single isomer, unassigned) [Example 20]: 5%.
Take `CCCC(C)c1c(-c2ccc(F)cc2F)c(C)nn2cnnc12` (single isomer, unassigned) [Example 21]: the “Infection [%] at 250 ppm” value in series [3] and in series [2] was 3% throughout.
`CCC(C)C(C)c1c(-c2ccc(C)cc2F)c(C)nn2cnnc12` (single isomer, unassigned) [Example 22]: the “Infection [%] at 250 ppm” value in series [2] worked out at 7%.
With `Cc1nn2cnnc2c(CC(C)C)c1-c1ccccc1` [Example 1, 7-Phenyl-8-isobutyl-6-methyl-[1,2,4]triazolo[4,3-b]pyridazine], the entries for the “Infection [%] at 250 ppm” value in series [1] and in series [3] were 10% and 20%, respectively.
On to `Cc1cc(F)ccc1-c1c(C)nn2cnnc2c1CC(C)C` [Example 2], for which the figures for the “Infection [%] at 250 ppm” value in series [1] and in series [3] were 15% and 0%, respectively.
For the compound `CCCCc1c(-c2ccc(F)cc2C)c(C)nn2cnnc12` [Example 3], the figures for the “Infection [%] at 250 ppm” value in series [1] and in series [3] were 25% and 0%, respectively.
`CCCCc1c(-c2ccc(F)cc2F)c(C)nn2cnnc12` [Example 4]: the “Infection [%] at 250 ppm” value was 10% in series [1] and 0% in series [3].
Turning to `CCCCc1c(-c2ccc(C)cc2F)c(C)nn2cnnc12` [Example 5], the “Infection [%] at 250 ppm” value in series [3] is 0%.
Still for that read-out and setting: for `Cc1nn2cnnc2c(CC(C)C)c1-c1ccc(F)cc1F` [Example 6] the value was 0%.
In the case of `Cc1ccc(-c2c(C)nn3cnnc3c2CC(C)C)c(F)c1` [Example 7], the “Infection [%] at 250 ppm” value in series [1] is 20%.
Regarding `Cc1nn2cnnc2c(C2CCCCC2)c1-c1ccc(F)cc1F` [Example 8], the “Infection [%] at 250 ppm” value in series [1] and in series [3] was 0% each time.
On to `Cc1ccc(-c2c(C)nn3cnnc3c2C2CCCCC2)c(C)c1` [Example 9], for which, in series [3], the “Infection [%] at 250 ppm” value is 20%.
Same read-out and setting: for `Cc1cc(F)ccc1-c1c(C)nn2cnnc2c1C1CCCCC1` [Example 10] the value was 0%.
In the case of `Cc1nn2cnnc2c(CCC(C)(C)C)c1-c1ccc(F)cc1F` [Example 11], the results for the “Infection [%] at 250 ppm” value in series [1] and in series [3] were 20% and 0%, respectively.
`Cc1ccc(-c2c(C)nn3cnnc3c2CCC(C)(C)C)c(F)c1` [Example 12]: the “Infection [%] at 250 ppm” value in series [1] and in series [3] was 3% each time.
Consider `Cc1ccc(-c2c(C)nn3cnnc3c2CCC(C)(C)C)c(C)c1` [Example 15], for which the results for the “Infection [%] at 250 ppm” value in series [3] and in series [2] were 3% and 20%, respectively.
On to `CC1CCN(c2c(-c3c(F)cccc3Cl)c(Cl)nc3nnnn23)CC1` [Example 23, 5-Chloro-6-(2-chloro-6-fluorophenyl)-7-(4-methylpiperidin-1-yl)-tetrazolo[1,5-a]pyrimidine], for which the “Infection [%] at 250 ppm” value in series [2] was 15%.
As for `Cc1nc2c(C#N)ncn2c(N[C@H](C)C(C)C)c1-c1c(F)cc(F)cc1F` [Example 36], the “Infection [%] at 250 ppm” value in series [1] is 7%.
In turn, `Cc1nn2ncnc2c(CC(C)C)c1-c1ccc(F)cc1F` [Example 38, 7-(2,4-Difluorophenyl)-8-isobutyl-6-methyl-[1,2,4]triazolo[1,5-b]pyridazine] gave a melting point of 103 to 105 °C.

(Values after US20060199801A1, “Heterobicyclic compounds used as fungicides” (priority 2003, published 2006).)
